Experiments:
SW480 cells = test: EdU label release assay, SW480; format: cell-based; conditions: SW480, 5 μM, 3 days; never found in control cells
Method: (§1) Two days later, cells were seeded singly onto 12 mm glass coverslips in 24-well plates. One day after, EdU was detected using the Click-iT® Plus EdU Alexa Fluor 488 Imaging Kit (Life Technologies, C10637) according to the manufacturer's protocol. For double staining of EdU and other proteins, the EdU stained cells were further used for immunofluorescence staining as described above. Intensity of EdU staining in paired cells were quantified by Photoshop CS6 software, unequal EdU distribution was considered when paired cells had intensity ratio higher than 2.

HCT116 cells = test: EdU label release assay, HCT116; format: cell-based; conditions: HCT116, 5 μM, 3 days
Method: as §1

β-catenin = test: In vivo ubiquitination assay in SW480 cells; format: cell-based; conditions: SW480, with proteasome inhibitor MG132, 6 hours
Method: Cells were harvested and re-suspended with 100 μl ice cold TBS (50 mM Tris-HCL pH 8.0, 150 mM NaCl) containing 2 μM N-Ethylmaleimide crystalline that was supplemented to all the following buffers. After adding 120 μl TBS containing 2% SDS and mixing quickly, cells were heated at 98° C. for 10 minutes and placed immediately on ice for 5 minutes. Cell lysates were incubated with 1.8 ml TBS containing 1% Triton X-100 and 3 μg antibody (β-catenin ab22656, clone 12F7, Abcam; SHPRH, ab80129, Abcam), at 4° C. overnight followed by incubation with 100 μl Protein G beads (Life technologies, 10004D) at 4° C. for 1 hour on rotator. Beads were collected with Magnet and serially washed once with 1 ml TBS containing 1% Triton X-100/0.1% SDS, twice with 1 ml TBS containing 0.5M LiCl and once with 1 ml TBS containing 1% Triton X-100. Following addition of 80 μl 2% SDS sample buffer containing 10 mM DTT (Sigma, D9779), the beads were boiled at 98° C. for 5 minutes and collected with Magnet, the supernatant was analyzed by Western blotting.

Wnt target genes = test: RT-PCR of Wnt target genes in 293FT cells; format: cell-based, human; conditions: 24 hours
Text: Reverse transcription (RT) and real-time quantitative PCR (qPCR) were done as previously described (Ke, X. S. et al., 2011, Exp Cell Res 317, 234-247). For qPCR using TagMan Universal PCR Master Mix (Life technologies, 4304437), TagMan assays used for human AXIN2 (Hs00610344_m1), LEF1 (Hs01547250_m1), BMP4 (Hs03676628_s1), CTNNB1 (Hs01076483_m1), VEGFR1 (Hs01052961_m1), MED23 (Hs00606608_m1), SHPRH (Hs00542737_m1) and ACTB1 (Hs99999903_m1) were obtained from Life technologies. For RT-PCR using RT^2 SYBR Green/ROX PCR Master Mix (QIAGEN, 330520), primer oligos were made by Eurogentec (Liege, Belgium).

RKO cells = test: EdU label release assay, RKO; format: cell-based; conditions: 5 μM, 3 days
Method: as §1

CNC(=O)c1ccccc1Sc1ccc2c(/C=C/c3ccccn3)n[nH]c2c1 [axitinib, N-Methyl-2-[[3-[(E)-2-pyridin-2-ylethenyl]-1H-indazol-6-yl]sulfanyl]benzamide]
cells with unequal EdU labelling (EdU ACD) (SW480 cells): around 15% | EdU ACD (HCT116 cells): increased significantly | ubiquitination of β-catenin (β-catenin): increased its ubiquitination | mRNA levels of Wnt target genes (Wnt target genes): decreases | EdU ACD (RKO cells): pre-treatment with 6B10 was required for EdU ACD induction
